Test results reported in patent US10351883B2, “Compounds for increasing lipid synthesis and storage” (NUtech Ventures, priority 2015, dated 2019).
Read-outs that look alike come from different tables or passages of the source.

Experiments:
Assay type in all cases: cell-based
[1] = test system: Chlamydomonas reinhardtii CC125; assay: Lipid accumulation in algal cells; details: 0.63 μM to 50 μM, FIG. 11A-11C
Procedure: (§1) Compounds 1, 62, and 136 were assayed in algal species Chlamydomonas reinhardtii CC125, Chlorella sorokiniana UTEX 1230, Chlorella vulgaris UTEX 395, and Tetrachlorella alterns UTEX 2453 at concentrations ranging from 0.63 μM to 50 μM.

[2] = test system: Chlorella vulgaris UTEX 395; assay: Lipid accumulation in algal cells; details: 0.63 μM to 50 μM, FIG. 11A-11C
Procedure: as §1

[3] = test system: Tetrachlorella alterns UTEX 2453; assay: Lipid accumulation in algal cells; details: 0.63 μM to 50 μM, FIG. 11A-11C
Procedure: as §1

[4] = test system: Chlorella sorokiniana UTEX 1230; assay: Lipid accumulation in algal cells; details: 0.63 μM to 50 μM, FIG. 11A-11C
Procedure: as §1

[5] = test system: Chlamydomonas reinhardtii cells; assay: Lipid accumulation using lipophilic dye Nile Red; details: for lipid accumulation: 0.5 μM to 15.0 μM, FIG. 3; for lipid accumulation over 72 hours: 30 μM test compound, FIG. 4
Procedure: […] At the indicated times 200 μL cells were removed from each well and optical density and nile red fluorescence were measured.
Lipid accumulation over a period of 72 hours was also measured (30 μM test compound) using lipophilic dye Nile Red, as shown in FIG. 4. […] FIGS. 12A-12C show representative images of C. reinhardtii cultures that were treated with 10 μM of representative test compounds of Formula Ia, Formula IIa, and Formula IIIa. The corresponding lipid accumulation was visualized using confocal microscopy after 72 hours in culture.

[6] = test system: Chlamydomonas reinhardtii cells; assay: Levels of proteins required for photosynthesis; details: Rubisco large and small sub unit, PSa D, PSb A, phosphoribulokinase, histone; FIG. 8
[7] = test system: Chlamydomonas reinhardtii cells; assay: Triglyceride assay; details: 5 μM, FIG. 6
[8] = test system: Chlamydomonas reinhardtii cells; assay: Total protein levels in cells; details: FIG. 10
[9] = test system: Chlamydomonas reinhardtii cells; assay: Cellular carbohydrate levels; details: 30 μM, FIG. 9
[10] = test system: Chlamydomonas reinhardtii cells; assay: Microscopy of treated cells (organelles, lipid droplets); details: FIG. 1
Procedure: (§2) The screening library included 43,736 compounds (ChemBridge, Corp). […] A sub-set of compounds were retested using an 8-point dose response assay (0.25-30 μM). Compounds were further assessed visually using a Nikon Ti-inverted microscope (60×) to reconfirm lipid droplet accumulation was induced.

[11] = test system: Chlamydomonas reinhardtii cells; assay: Fatty acid assay; details: 30 μM, FIG. 5
[12] = test system: Chlamydomonas reinhardtii cells; assay: Cellular chlorophyll and carotenoid levels; details: 30 μM, FIG. 7
[13] = test system: Chlamydomonas reinhardtii; assay: 8-point dose response assay (0.25-30 μM); set-up: reference not given here; details: for Dose Response Assay 0.25 μM: 0.25 μM compound; for Dose Response Assay 0.625 μM: 0.625 μM compound; for Dose Response Assay 2.5 μM: 2.5 μM compound; for Dose Response Assay 5 μM: 5 μM compound; for Dose Response Assay 10 μM: 10 μM compound; for Dose Response Assay 15 μM: 15 μM compound; for Dose Response Assay 30 μM: 30 μM compound
Procedure: A large scale in vivo high throughput screen (HTS) was performed to identify small compounds that stimulate lipid production and accumulation using the model organism Chlamydomonas reinhardtii. The HTS employed a 384-well microplate format in which cells were allowed to grow in the presence of the test compounds at 10 μM final concentration for 72 hours.
as §2

[14] = 8-point dose response, Nile Red lipid accumulation

Row | SMILES | Dose Response Assay 1.25 μM [13] | Dose Response Assay 0.25 μM [13, 14] | Dose Response Assay 0.625 μM [13, 14] | Dose Response Assay 2.5 μM [13, 14] | Dose Response Assay 5 μM [13, 14] | Dose Response Assay 10 μM [13, 14] | Dose Response Assay 15 μM [13, 14] | Dose Response Assay 30 μM [13, 14] | other results
1 | COc1ccc(CCN(C)Cc2ccc([N+](=O)[O-])cc2)cc1OC [Compound 1, 2-(3,4-dimethoxyphenyl)-N-methyl-N-(4-nitrobenzyl)ethan-1-amine] | – | – | – | – | – | – | – | – | lipid accumulation [1]: stimulated lipid accumulation; lipid accumulation [2]: stimulated lipid accumulation; lipid accumulation [3]: stimulated lipid accumulation; lipid accumulation [4]: stimulated lipid accumulation; lipid accumulation [5]: increased lipid accumulation; lipid accumulation over 72 hours [5]: increased lipid accumulation; levels of proteins required for photosynthesis [6]: did not significantly affect; triacylglyercol levels [7]: increased triacylglyercol levels; total protein levels [8]: None of the test compounds significantly affected; carbohydrate levels [9]: increased carbohydrate levels; disruption of major organelles including nucleus, endoplasmic reticulum, and chloroplast [10]: does not disrupt major organelles; fatty acid levels [11]: increased fatty acid levels; carotenoid levels [12]: did not significantly alter; levels of chlorophyll A (Chl A) [12]: did not significantly alter; levels of chlorophyll B (Chl B) [12]: did not significantly alter
2 | COc1ccccc1N1CCN(Cc2ccc(O)cc2)CC1 [Compound 62, 4-((4-(2-methoxyphenyl)piperazin-1-yl)methyl)phenol] | – | – | – | – | – | – | – | – | lipid accumulation [1]: stimulated lipid accumulation; lipid accumulation [2]: stimulated lipid accumulation; lipid accumulation [3]: stimulated lipid accumulation; lipid accumulation [4]: stimulated lipid accumulation; lipid accumulation [5]: increased lipid accumulation; lipid accumulation over 72 hours [5]: increased lipid accumulation; levels of proteins required for photosynthesis [6]: minor effects; triacylglyercol levels [7]: increased triacylglyercol levels; total protein levels [8]: None of the test compounds significantly affected; carbohydrate levels [9]: increased carbohydrate levels; disruption of major organelles including nucleus, endoplasmic reticulum, and chloroplast [10]: does not disrupt major organelles; fatty acid levels [11]: increased fatty acid levels; carotenoid levels [12]: did not significantly alter; levels of chlorophyll A (Chl A) [12]: did not significantly alter; levels of chlorophyll B (Chl B) [12]: did not significantly alter
3 | Fc1ccc(CN2CCN(c3ccccc3Cl)CC2)cc1 [Compound 69] | 1.29 | 1.05 | 0.96 | 3.01 | 2.44 | 3.49 | 3.49 | 2.54 | –
4 | CC(C)c1ccc(CN2CCN(C)CC2)cc1 [Compound 70] | 2.19 | 0.87 | 1.55 | 4.4 | 8.64 | 7.57 | 11.05 | 11.07 | –
5 | Cc1cccc(N2CCN(Cc3ccc([N+](=O)[O-])cc3)CC2)c1C [Compound 74] | 0.80 | – | – | – | – | – | – | – | –
6 | CCc1ccc(CN2CCN(c3ccccc3C)CC2)cc1 [Compound 84] | 1 | 0.92 | 0.89 | 2.5 | 2.05 | 1.64 | 2.19 | 1.34 | –
7 | Brc1ccc(CN2CCN(c3ccccc3)CC2)cc1 [Compound 86] | 1.69 | 0.98 | 1.01 | 2.39 | 2.29 | 2.71 | 3.38 | 3.76 | –
8 | COc1cc(CN2CCN(Cc3ccccc3)CC2)cc(OC)c1 [Compound 99] | 0.97 | 0.98 | 0.84 | 1.4 | 1.96 | 2.96 | 3.37 | 4.22 | –
9 | COc1cccc(CN2CCN(C(=O)c3cc(OC)c(OC)c(OC)c3)CC2)c1OC [Compound 101] | 1.14 | 1.03 | 1.08 | 0.88 | 1.58 | 1.04 | 1.43 | 1.75 | –
10 | CCN1CCN(Cc2ccc(N(CC)CC)cc2)CC1 [Compound 104] | 3.96 | 1.23 | 3.68 | 5.27 | 4.04 | 2.81 | 3.28 | 3.69 | –
11 | Oc1ccc(Cl)cc1CN1CCN(Cc2ccccc2)CC1 [Compound 107] | 1.23 | 0.98 | 1.01 | 2.05 | 2.31 | 2.48 | 3.07 | 3.06 | –
12 | COc1ccccc1C(=O)N1CCN(C(=O)C(c2ccccc2)c2ccccc2)CC1 [Compound 120] | 0.89 | 0.91 | 0.64 | 1.12 | 1.07 | 2.15 | 3.19 | 1.02 | –
13 | O=[N+]([O-])c1ccccc1CN1CCN(CC2CC3C=CC2C3)CC1 (stereo not shown) [Compound 124] | 0.99 | – | – | – | – | 0.88 | – | – | –
14 | CC(=O)NC1=C(N2CCN(Cc3ccccc3)CC2)C(=O)c2ccccc2C1=O [Compound 134] | 0.93 | 0.97 | 1.06 | 1.32 | 1.77 | 1.31 | 1.97 | 2.14 | –
15 | CN(CCC#N)C12CC3CC(CC(C3)C1)C2 [Compound 136, 3-(adamantan-1-yl(methyl)amino)propanenitrile] | – | – | – | – | – | – | – | – | lipid accumulation [1]: stimulated lipid accumulation; lipid accumulation [2]: stimulated lipid accumulation; lipid accumulation [3]: stimulated lipid accumulation; lipid accumulation [4]: stimulated lipid accumulation; lipid accumulation [5]: increased lipid accumulation; lipid accumulation over 72 hours [5]: increased lipid accumulation; levels of proteins required for photosynthesis [6]: did not significantly affect; triacylglyercol levels [7]: increased triacylglyercol levels; total protein levels [8]: None of the test compounds significantly affected; carbohydrate levels [9]: increased carbohydrate levels; disruption of major organelles including nucleus, endoplasmic reticulum, and chloroplast [10]: does not disrupt major organelles; fatty acid levels [11]: increased fatty acid levels; carotenoid levels [12]: did not significantly alter; levels of chlorophyll A (Chl A) [12]: did not significantly alter; levels of chlorophyll B (Chl B) [12]: did not significantly alter
16 | Cl.Oc1ccccc1CNCCC12CC3CC(CC(C3)C1)C2 [Compound 148] | – | 0.94 | 1.04 | 1.32 | 1.63 | 1.39 | 1.65 | 1.45 | Dose Response Assay 1.25 μM ([13]; 1.25 μM compound, 8-point dose response, Nile Red lipid accumulation): 0.88
